According to patent US20030119913A1, “Method for increasing serotonin levels in a person by administration of a composition incorporating (-)-hydroxycitric acid, and related compositions thereof” (priority 2001, published 2003):

Legend:
[1] = tested on: moderately obese human subjects; experiment: Double-blind, placebo-controlled human clinical trial (serum serotonin, body weight, food intake); type: in vivo
Experimental: The effects of administering compositions within the scope of the present invention were tested. A double-blind, placebo-controlled human clinical trial was conducted using a composition incorporating: the HCA extract described above, or the HCA extract in combination with an oxygen-coordinated niacin-bound chromium (ChromeMate®, supplied by InterHealth), and a standardized Gymnema sylvestre extract (also supplied by InterHealth). Approximately 80 moderately obese human subjects were enrolled in the study. All subjects were placed on a daily diet of 2,000 kcal, weighing 2,250 grams. All food was prepared and delivered to the subjects, and all food intake was strictly supervised by trained dieticians. All subjects also underwent a 30 minute walking exercise program, five times a week, which was supervised by a trained exercise specialist. The subjects were randomly divided into three groups. The first group was given a placebo. The second group was given a daily dose of 4,667 mg of garcinia cambogia extract (providing 2,800 mg HCA per day). The third group was given a daily dose of 4,667 mg of a combination of garcinia cambogia (2,800 mg HCA), 4 mg of niacin-bound chromium (providing 400 mcg of elemental chromium), and 400 mg of Gymnema sylvestre extract (providing 100 mg […]). The subjects received their respective compositions in three equally-divided doses 30 to 60 minutes before breakfast, lunch and dinner for eight weeks. These dosage levels of HCA were determined by extrapolation of successful earlier animal trials, as well as review of optimal micromolar concentrations of HCA in ex vivo brain tissue resulting in maximum serotonin release. The persons were assessed for changes in serum serotonin levels, body weight, and food intake. As discussed above, increases in serum serotonin levels relate to reduced appetite. Food intake was measured by monitoring the amount of food left unconsumed after each meal by the subjects. The amount of food left unconsumed while taking either the placebo or either of the HCA compositions was compared to the amount of food left unconsumed before the subjects began taking the compositions (i.e., the baseline). Changes in each of these factors were measured in the persons and averaged to produce the figures in Table 1.

rat brain cortex slices = experiment: Radiolabeled serotonin release from isolated, superfused rat brain cortex slices in vitro; type: cell-based
Experimental: Methods previously known for studies of radiolabeled serotonin release were employed. Isolated rat brain cortex slices were incubated in oxygenated Krebs buffer solution containing 800 nM radiolabeled serotonin, the monoamine oxidase inhibitor pargyline (10 μM), and the cyclooxygenase inhibitor flurbiprofen (3 μM) at 37° C. […] Radiolabeled serotonin was purchased from NEN Life Sciences, Boston, Mass. The Krebs solution used had the following composition (millimolar): potassium chloride, 4.8; sodium chloride 118; calcium chloride, 1.3; potassium dihydrogen phosphate, 1.2; sodium bicarbonate, 25; magnesium sulfate, 2.0; and dextrose, 10 (pH 7.4).
After incubation, tissues were rinsed, mounted between nylon mesh-cloth and placed in thermostatically-controlled superfusion chambers. Tissues were superfused at a rate of 0.5 ml/min with oxygenated Krebs solution containing clomipramine (10 μM), a serotonin reuptake inhibitor. Fractions of the superfusate were collected at 6-minute intervals, and 3-ml aliquots of each fraction was combined with 12 ml of aqueous scintillation cocktail marketed under the name Ecolume, by ICN Radiochemicals of California) and analyzed for radioactivity by liquid scintillation spectrometry.
After an initial 2 hours of superfusion to establish a stable baseline of spontaneous tritium efflux, release of radiolabeled serotonin was elicited by consecutive potassium-depolarizing (K+, 50 mM) stimuli applied at 144 minutes (S1) and at 198 minutes (S2) after the onset of superfusion. In some experiments, tissues were exposed to different concentrations of HCA for 12 minutes before the second K+ stimuli at S2. When HCA was tested on its own, the K+ (50 mM; S1) peak was used as the standard (or control) response. In this case, effects induced by HCA on radiolabeled serotonin release were then compared with the standard K+ response. Both K+ and HCA-induced radiolabeled serotonin release were estimated by subtraction of the extrapolated basal tritium efflux from total tritium release in the 20-minute period after the onset of stimulation. Basal (unstimulated) tritium efflux was assumed to decline linearly between pre-stimulation and post-stimulation fractions. Stimulation-evoked radiolabeled serotonin release during S1 and S2 was determined graphically, and the ratio of the two peaks (S1/S2) was calculated and compared with untreated control preparations.
Results obtained were expressed as absolute S1/S2 ratios. Data from different experiments (control and test) were pooled and then subjected to statistical analysis. Except where indicated otherwise, values given are arithmetic means ±SEM. Significance of difference between control and test values was evaluated using analysis of variance (ANOVA) followed by Dunnett's test. […]

[2] = eight weeks, 2,800 mg HCA per day orally in three doses

What does the source list for `O=C(O)CC(O)(C(=O)O)C(O)C(=O)O` (single isomer, unassigned; (-)) [HCA, (−)-hydroxycitric acid]?
Body weight, % decrease [1, 2]: 5.0%; Serum serotonin level, % increase [1, 2]: 48.5%; Serum serotonin level, mg/dl increase [1, 2]: 119.1 mg/dL; Body weight, pounds lost ([1]; eight weeks, 2,800 mg HCA per day orally in three doses, 2,000 kcal diet and exercise): 10.0 pounds; Food left unconsumed, % increase from baseline ([1]; eight weeks, compared with before taking the compositions): 206%; Food left unconsumed, grams ([1]; eight weeks, daily diet weighing 2,250 grams): 249 grams; Effect on second K+ response (K+-depolarization evoked radiolabeled serotonin release, S2) (rat brain cortex slices; HCA 10 μM-1 mM applied 12 minutes before second K+ (50 mM) stimulus): no significant effect; Effect on basal efflux of radiolabeled serotonin (rat brain cortex slices; HCA 10 μM-1 mM, rat brain cortex slices): concentration-related increase; Overflow of radiolabeled serotonin compared with standard K+ (50 mM) response (rat brain cortex slices; HCA 300 μM (maximal concentration)): equivalent to the release induced by the standard concentration of K+ (50 mM); Concentration giving maximum basal efflux of radiolabeled serotonin (rat brain cortex slices; tested range 10 μM-1 mM): 300 µM
